Laboratory results published in patent publication US20120157453A1, “RAF INHIBITOR COMPOUNDS AND METHODS OF USE THEREOF” (GENENTECH, INC., priority 2009, published 2012).
Like-named read-outs stand apart in the source and are kept apart here.

Tests used:
V600E full-length B-Raf = target: T1, V600E full-length B-Raf (Homo sapiens, UniProt P15056, V600E); test: B-Raf IC50 assay (incorporation of 33P phosphate into FSBA-modified MEK); type: biochemical
T1 construct: 1 μM FSBA-MEK and 20 nM V600E full-length B-Raf; made in house; host or cells: Sf9 insect cells (baculovirus)
T1 sequence (P15056 whole entry V600E): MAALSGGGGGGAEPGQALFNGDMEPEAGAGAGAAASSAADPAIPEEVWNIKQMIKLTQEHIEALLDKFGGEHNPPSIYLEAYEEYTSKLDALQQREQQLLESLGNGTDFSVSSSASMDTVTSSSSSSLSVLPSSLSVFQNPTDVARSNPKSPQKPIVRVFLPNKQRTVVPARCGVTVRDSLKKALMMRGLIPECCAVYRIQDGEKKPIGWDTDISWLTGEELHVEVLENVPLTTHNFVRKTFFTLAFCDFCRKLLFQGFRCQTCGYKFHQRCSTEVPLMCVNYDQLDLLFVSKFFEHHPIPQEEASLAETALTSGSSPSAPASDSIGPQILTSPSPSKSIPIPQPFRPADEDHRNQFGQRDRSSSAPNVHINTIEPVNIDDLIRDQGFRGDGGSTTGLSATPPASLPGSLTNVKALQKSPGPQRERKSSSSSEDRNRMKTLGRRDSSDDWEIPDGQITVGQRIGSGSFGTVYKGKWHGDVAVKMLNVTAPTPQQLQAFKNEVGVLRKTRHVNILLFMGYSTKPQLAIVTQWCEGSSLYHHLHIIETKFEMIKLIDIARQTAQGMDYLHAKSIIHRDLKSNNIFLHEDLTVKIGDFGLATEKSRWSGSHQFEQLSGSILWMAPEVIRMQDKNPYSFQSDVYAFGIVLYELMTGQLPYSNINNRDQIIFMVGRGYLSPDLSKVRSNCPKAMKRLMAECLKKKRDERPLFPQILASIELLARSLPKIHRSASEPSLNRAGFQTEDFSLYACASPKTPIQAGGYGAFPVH
Excerpt: Determining the activity of Raf in the sample is possible by a number of direct and indirect detection methods (US 2004/0082014). Activity of human recombinant B-Raf protein may be assessed in vitro by assay of the incorporation of radio labeled phosphate to recombinant MAP kinase (MEK), a known physiologic substrate of B-Raf, according to US 2004/0127496 and WO 03/022840. The activity/inhibition of V600E full-length B-Raf was estimated by measuring the incorporation of radio labeled phosphate from [γ-^33P]ATP into FSBA-modified wild-type MEK (see Example A).
Activity of human recombinant B-Raf protein may be assessed in vitro by assay of the incorporation of radio labeled phosphate to recombinant MAP kinase (MEK), a known physiologic substrate of B-Raf, according to US 2004/0127496 and WO 03/022840. Catalytically active human recombinant B-Raf protein is obtained by purification from sf9 insect cells infected with a human B-Raf recombinant baculovirus expression vector.
The activity/inhibition of V600E full-length B-Raf was estimated by measuring the incorporation of radio labeled phosphate from [γ-^33P]ATP into FSBA-modified wild-type MEK. The 30-μL assay mixtures contained 25 mM Na Pipes, pH 7.2, 100 mM KCl, 10 mM MgCl2, 5 mM β-glycerophosphate, 100 μM Na Vanadate, 4 μM ATP, 500 nCi [γ-^33P]ATP, 1 μM FSBA-MEK and 20 nM V600E full-length B-Raf. Incubations were carried out at 22° C. in a Costar 3365 plate (Corning). Prior to the assay, the B-Raf and FSBA-MEK were preincubated together in assay buffer at 1.5× (20 μL of 30 nM and 1.5 μM, respectively) for 15 minutes, and the assay was initiated by the addition of 10 μL of 10 μM ATP. Following the 60-minute incubation, the assay mixtures were quenched by the addition of 100 μL of 25% TCA, the plate was mixed on a rotary shaker for 1 minute, and the product was captured on a Perkin-Elmer GF/B filter plate using a Tomtec Mach III Harvester. After sealing the bottom of the plate, 35 μL of Bio-Safe II (Research Products International) scintillation cocktail were added to each well and the plate was top-sealed and counted in a Topcount NXT (Packard).

[1] = test system: basal ERK1/2 phosphorylation in Malme-3M cells; test: Cellular ERK 1/2 phosphorylation assay; type: cell-based; details: Homo sapiens, 1 h, pERK normalized to total ERK
Method: Inhibition of basal ERK1/2 phosphorylation was determined by the following in vitro […], which comprises incubating cells with a compound of Formula II for 1 hour and quantifying the fluorescent pERK signal on fixed cells and normalizing to total ERK signal.
Materials and Methods: Malme-3M cells were obtained from ATCC and grown in RPMI-1640 supplemented with 10% fetal bovine serum. Cells were plated in 96-well plates at 24,000 cells/well and allowed to attach for 16-20 hours at 37° C., 5% CO2. The media was removed, and DMSO-diluted compounds were added in RPMI-1640 at a final concentration of 1% DMSO. The cells were incubated with the compounds for 1 hour at 37° C., 5% CO2. The cells were washed with PBS and fixed in 3.7% formaldehyde in PBS for 15 minutes. This was followed by washing in PBS/0.05% Tween20 and permeabilizing in −20° C. 100% MeOH for 15 minutes. Cells were washed in PBS/0.05% Tween20 then blocked in Odyssey blocking buffer (LI-COR Biosciences) for 1 hour. Antibodies to phosphorylated ERK (1:400, Cell Signaling #9106, monoclonal) and total ERK (1:400, Santa Cruz Biotechnology #sc-94, polyclonal) were added to the cells and incubated 16-20 hours at 4° C. After washing with PBS/0.05% Tween20, the cells were incubated with fluorescently-labeled secondary antibodies (1:1000 goat anti-rabbit IgG-IRDye800, Rockland and 1:500 goat anti-mouse IgG-Alexa Fluor 680, Molecular Probes) for an additional hour. Cells were then washed and analyzed for fluorescence at both wavelengths using the Odyssey Infrared Imaging System (LI-COR Biosciences). Phosphorylated ERK signal was normalized to total ERK signal.

[2] = B-Raf V600E, bound less than 1 μM, read-out: IC50
[3] = Example A assay, 4 μM ATP, 20 nM enzyme, 60-minute incubation, read-out: BRAF V600E IC50

SMILES: CCS(=O)(=O)Nc1ccc(F)c(NC(=O)Nc2ncnc3[nH]nc(OC)c23)c1F [Example 3, Ethanesulfonic acid {2,4-difluoro-3-[3-(3-methoxy-1H-pyrazolo[3,4-d]pyrimidin-4-yl)-ureido]-phenyl}-amide]
- IC50 (V600E full-length B-Raf; [2]): < 1000 nM
- IC50 (V600E full-length B-Raf; [3]): 3.4 nM
- IC50 [1]: 13.5 nM
- IC50 ([1]; bound less than 500 nM): < 500 nM
- IC50 ([1]; bound less than 1 μM): < 1000 nM

SMILES: CCS(=O)(=O)Nc1ccc(F)c(NC(=O)Nc2ncnc3[nH]nc(OC)c23)c1Cl [Example 5, Ethanesulfonic acid {2-chloro-4-fluoro-3-[3-(3-methoxy-1H-pyrazolo[3,4-d]pyrimidin-4-yl)-ureido]-phenyl}-amide]
- IC50 (V600E full-length B-Raf; [2]): < 1000 nM
- IC50 (V600E full-length B-Raf; [3]): 3.9 nM
- IC50 [1]: 47.9 nM
- IC50 ([1]; bound less than 500 nM): < 500 nM
- IC50 ([1]; bound less than 1 μM): < 1000 nM

SMILES: CCCS(=O)(=O)Nc1ccc(F)c(NC(=O)N(C)c2ncnc3[nH]cnc23)c1F [Example 1, Propane-1-sulfonic acid {2,4-difluoro-3-[3-methyl-3-(9H-purin-6-yl)-ureido]-phenyl}-amide]
- IC50 (V600E full-length B-Raf; [2]): < 1000 nM
- IC50 (V600E full-length B-Raf; [3]): 23.9 nM
- IC50 ([1]; bound less than 500 nM): < 500 nM
- IC50 ([1]; bound less than 1 μM): < 1000 nM
